According to PubChem BioAssay AID1259407 (Chemical Carcinogenesis Research Information System (CCRIS), 2018):
Calls of active or inactive are those of the source. The rule behind the calls is not given here.

System: CCRIS mutagenicity, Ames/micronucleus/aberration tests
Test: CCRIS mutagenicity studies
[1] = Test System: AMES SALMONELLA TYPHIMURIUM, Strain/Indicator: TA98, Metabolic Activation: NONE, Method: STANDARD PLATE
[2] = Test System: AMES SALMONELLA TYPHIMURIUM, Strain/Indicator: TA98, Metabolic Activation: RAT, LIVER, S-9, AROCLOR 1254, Method: STANDARD PLATE
[3] = Test System: AMES SALMONELLA TYPHIMURIUM, Strain/Indicator: TA100, Metabolic Activation: NONE, Method: STANDARD PLATE
[4] = Test System: AMES SALMONELLA TYPHIMURIUM, Strain/Indicator: TA100, Metabolic Activation: RAT, LIVER, S-9, AROCLOR 1254, Method: STANDARD PLATE
[5] = Test System: AMES SALMONELLA TYPHIMURIUM, Strain/Indicator: TA1535, Metabolic Activation: NONE, Method: STANDARD PLATE
[6] = Test System: AMES SALMONELLA TYPHIMURIUM, Strain/Indicator: TA1535, Metabolic Activation: RAT, LIVER, S-9, AROCLOR 1254, Method: STANDARD PLATE
[7] = Test System: AMES SALMONELLA TYPHIMURIUM, Strain/Indicator: TA1537, Metabolic Activation: NONE, Method: STANDARD PLATE
[8] = Test System: AMES SALMONELLA TYPHIMURIUM, Strain/Indicator: TA1537, Metabolic Activation: RAT, LIVER, S-9, AROCLOR 1254, Method: STANDARD PLATE
[9] = Test System: MOUSE LYMPHOMA, Strain/Indicator: L5178Y (TK+/TK-), Metabolic Activation: NONE, Method: SUSPENSION/PLATE
[10] = Test System: AMES SALMONELLA TYPHIMURIUM, Strain/Indicator: TA98, Metabolic Activation: NONE, Method: PREINCUBATION
[11] = Test System: AMES SALMONELLA TYPHIMURIUM, Strain/Indicator: TA100, Metabolic Activation: NONE, Method: PREINCUBATION

## CC(=O)Nc1ccc(S(=O)(=O)O)c2cc(S(=O)(=O)O)c(N=Nc3ccc(N=Nc4ccc(S(=O)(=O)O)cc4)c4ccc(S(=O)(=O)O)cc34)c(O)c12
Test System: AMES SALMONELLA TYPHIMURIUM, Strain/Indicator: TA98, Metabolic Activation: HAMSTER, LIVER, S-9, AROCLOR 1254, Method: STANDARD PLATE
  mutagenic call: inactive; negative
[1]
  mutagenic call: inactive; negative
[2]
  mutagenic call: inactive; negative
Test System: AMES SALMONELLA TYPHIMURIUM, Strain/Indicator: TA100, Metabolic Activation: HAMSTER, LIVER, S-9, AROCLOR 1254, Method: STANDARD PLATE
  mutagenic call: inactive; negative
[3]
  mutagenic call: inactive; negative
[4]
  mutagenic call: inactive; negative
Test System: AMES SALMONELLA TYPHIMURIUM, Strain/Indicator: TA1535, Metabolic Activation: HAMSTER, LIVER, S-9, AROCLOR 1254, Method: STANDARD PLATE
  mutagenic call: inactive; negative
[5]
  mutagenic call: inactive; negative
[6]
  mutagenic call: inactive; negative
Test System: AMES SALMONELLA TYPHIMURIUM, Strain/Indicator: TA1537, Metabolic Activation: HAMSTER, LIVER, S-9, AROCLOR 1254, Method: STANDARD PLATE
  mutagenic call: inactive; negative
[7]
  mutagenic call: inactive; negative
[8]
  mutagenic call: inactive; negative
[9]
  mutagenic call: inactive; negative. reevaluation of results: negative
Test System: MOUSE LYMPHOMA, Strain/Indicator: L5178Y (TK+/TK-), Metabolic Activation: RAT, LIVER, S-9, AROCLOR 1254, Method: SUSPENSION/PLATE
  mutagenic call: active; positive. reevaluation of results: equivocal

## C=C(Cl)CSC(=S)N(CC)CC
[3]
  mutagenic call: inactive; negative
Test System: AMES SALMONELLA TYPHIMURIUM, Strain/Indicator: TA100, Metabolic Activation: RAT, LIVER, CYTOSOL, AROCLOR 1254, Method: STANDARD PLATE
  mutagenic call: inactive; negative
Test System: AMES SALMONELLA TYPHIMURIUM, Strain/Indicator: TA100, Metabolic Activation: RAT, LIVER, MICROSOMES, AROCLOR 1254, Method: STANDARD PLATE
  mutagenic call: inactive; negative
Test System: AMES SALMONELLA TYPHIMURIUM, Strain/Indicator: TA100, Metabolic Activation: RAT, LIVER, MICROSOMES, CYTOSOL, AROCLOR 1254, Method: STANDARD PLATE
  mutagenic call: active; positive
[4]
  mutagenic call: active; positive

## COC(=O)[C@H]1O[C@@H]1c1ccccc1
[1]
  mutagenic call: inactive; negative
[2]
  mutagenic call: inactive; negative
[4]
  mutagenic call: inactive; negative
[5]
  mutagenic call: inactive; negative
[6]
  mutagenic call: inactive; negative
[7]
  mutagenic call: inactive; negative
[8]
  mutagenic call: inactive; negative
Test System: AMES SALMONELLA TYPHIMURIUM, Strain/Indicator: TA1538, Metabolic Activation: NONE, Method: STANDARD PLATE
  mutagenic call: inactive; negative
Test System: AMES SALMONELLA TYPHIMURIUM, Strain/Indicator: TA1538, Metabolic Activation: RAT, LIVER, S-9, AROCLOR 1254, Method: STANDARD PLATE
  mutagenic call: inactive; negative

## CCCCOC(=O)c1ccccc1C(=O)OCCCC
Test System: AMES SALMONELLA TYPHIMURIUM, Strain/Indicator: TA98, Metabolic Activation: HAMSTER, LIVER, S-9, AROCLOR 1254 (10%), Method: PREINCUBATION
  mutagenic call: inactive; negative
[10]
  mutagenic call: inactive; negative
Test System: AMES SALMONELLA TYPHIMURIUM, Strain/Indicator: TA98, Metabolic Activation: RAT, LIVER, S-9, AROCLOR 1254 (10%), Method: PREINCUBATION
  mutagenic call: inactive; negative
Test System: AMES SALMONELLA TYPHIMURIUM, Strain/Indicator: TA100, Metabolic Activation: HAMSTER, LIVER, S-9, AROCLOR 1254 (10%), Method: PREINCUBATION
  mutagenic call: inactive; negative
[11]
  mutagenic call: inactive; negative
[3]
  mutagenic call: active; positive
Test System: AMES SALMONELLA TYPHIMURIUM, Strain/Indicator: TA100, Metabolic Activation: RAT, LIVER, S-9, AROCLOR 1254 (10%), Method: PREINCUBATION
  mutagenic call: inactive; negative
Test System: AMES SALMONELLA TYPHIMURIUM, Strain/Indicator: TA100, Metabolic Activation: S-9, Method: STANDARD PLATE
  mutagenic call: inactive; negative
Test System: AMES SALMONELLA TYPHIMURIUM, Strain/Indicator: TA1535, Metabolic Activation: HAMSTER, LIVER, S-9, AROCLOR 1254 (10%), Method: PREINCUBATION
  mutagenic call: inactive; negative
Test System: AMES SALMONELLA TYPHIMURIUM, Strain/Indicator: TA1535, Metabolic Activation: NONE, Method: PREINCUBATION
  mutagenic call: inactive; negative
[5]
  mutagenic call: inactive; negative
Test System: AMES SALMONELLA TYPHIMURIUM, Strain/Indicator: TA1535, Metabolic Activation: RAT, LIVER, S-9, AROCLOR 1254 (10%), Method: PREINCUBATION
  mutagenic call: inactive; negative
Test System: AMES SALMONELLA TYPHIMURIUM, Strain/Indicator: TA1535, Metabolic Activation: S-9, Method: STANDARD PLATE
  mutagenic call: inactive; negative
Test System: AMES SALMONELLA TYPHIMURIUM, Strain/Indicator: TA1537, Metabolic Activation: HAMSTER, LIVER, S-9, AROCLOR 1254 (10%), Method: PREINCUBATION
  mutagenic call: inactive; negative
Test System: AMES SALMONELLA TYPHIMURIUM, Strain/Indicator: TA1537, Metabolic Activation: NONE, Method: PREINCUBATION
  mutagenic call: inactive; negative
Test System: AMES SALMONELLA TYPHIMURIUM, Strain/Indicator: TA1537, Metabolic Activation: RAT, LIVER, S-9, AROCLOR 1254 (10%), Method: PREINCUBATION
  mutagenic call: inactive; negative
[9]
  mutagenic call: inactive; negative
Test System: MOUSE LYMPHOMA, Strain/Indicator: L5178Y (TK+/TK-), Metabolic Activation: RAT LIVER S-9, Method: SUSPENSION/PLATE
  mutagenic call: active; positive

## O=Cc1cccc(Cl)c1
[10]
  mutagenic call: inactive; negative
Test System: AMES SALMONELLA TYPHIMURIUM, Strain/Indicator: TA98, Metabolic Activation: RAT LIVER S-9, PCB, Method: PREINCUBATION
  mutagenic call: inactive; negative
[11]
  mutagenic call: inactive; negative
Test System: AMES SALMONELLA TYPHIMURIUM, Strain/Indicator: TA100, Metabolic Activation: RAT LIVER S-9, PCB, Method: PREINCUBATION
  mutagenic call: inactive; negative
Test System: AMES SALMONELLA TYPHIMURIUM, Strain/Indicator: TA104, Metabolic Activation: NONE, Method: PREINCUBATION
  mutagenic call: inactive; negative
Test System: AMES SALMONELLA TYPHIMURIUM, Strain/Indicator: TA104, Metabolic Activation: RAT LIVER S-9, PCB, Method: PREINCUBATION
  mutagenic call: inactive; negative
Test System: E.COLI, Strain/Indicator: WP2 UVRA, Metabolic Activation: NONE, Method: PREINCUBATION
  mutagenic call: inactive; negative
Test System: E.COLI, Strain/Indicator: WP2 UVRA, Metabolic Activation: RAT LIVER S-9, PCB, Method: PREINCUBATION
  mutagenic call: inactive; negative

## [Cl][Sn]([Cl])([Cl])[c]1ccccc1
Test System: AMES SALMONELLA TYPHIMURIUM, Strain/Indicator: TA98, Metabolic Activation: NONE, Method: SUSPENSION/PLATE
  mutagenic call: inactive; negative
Test System: AMES SALMONELLA TYPHIMURIUM, Strain/Indicator: TA100, Metabolic Activation: NONE, Method: SUSPENSION/PLATE
  mutagenic call: inactive; negative

## CCCCOc1cc(Br)ccc1C(=O)NOC(C)=O
[3]
  mutagenic call: active; positive
Test System: AMES SALMONELLA TYPHIMURIUM, Strain/Indicator: TA100, Metabolic Activation: RAT, S-9, AROCLOR, Method: STANDARD PLATE
  mutagenic call: active; positive

## ClCc1cccc2cc3ccc4cccc5ccc(c12)c3c45
[1]
  mutagenic call: active; positive
[3]
  mutagenic call: active; positive

## CC(C)N(N)C(C)C
[3]
  mutagenic call: inactive; negative
[4]
  mutagenic call: inactive; negative
Test System: AMES SALMONELLA TYPHIMURIUM, Strain/Indicator: TA102, Metabolic Activation: NONE, Method: STANDARD PLATE
  mutagenic call: inactive; negative
Test System: AMES SALMONELLA TYPHIMURIUM, Strain/Indicator: TA102, Metabolic Activation: RAT, LIVER, S-9, AROCLOR 1254, Method: STANDARD PLATE
  mutagenic call: inactive; negative
[5]
  mutagenic call: inactive; negative
[6]
  mutagenic call: active; positive

## CC12OOC1(C)c1ccccc1O2 (stereo not drawn)
[11]
  mutagenic call: active; positive
Test System: AMES SALMONELLA TYPHIMURIUM, Strain/Indicator: TA2638, Metabolic Activation: NONE, Method: PREINCUBATION
  mutagenic call: inactive; negative
